In PubChem BioAssay (NCI):
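These data come from cells grown in 96-well plates and exposed to compound for 48 hours at five concentrations. TGI: concentration producing complete growth inhibition.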

How the values were obtained:
Experiment in all cases: growth of human tumour cells (NCI), 48 h
ACHN renal = system: ACHN renal
SNB-19 CNS = system: SNB-19 CNS
CAKI-1 renal = system: CAKI-1 renal
SF-268 CNS = system: SF-268 CNS
NCI/ADR-RES ovarian = system: NCI/ADR-RES ovarian
IGROV1 ovarian = system: IGROV1 ovarian
BT-549 breast = system: BT-549 breast
SNB-75 CNS = system: SNB-75 CNS
SW-620 colon = system: SW-620 colon
HCC-2998 colon = system: HCC-2998 colon
786-0 renal = system: 786-0 renal
OVCAR-3 ovarian = system: OVCAR-3 ovarian
OVCAR-8 ovarian = system: OVCAR-8 ovarian
MCF7 breast = system: MCF7 breast
MDA-MB-231 breast = system: MDA-MB-231 breast
SK-OV-3 ovarian = system: SK-OV-3 ovarian
HOP-92 NSCLC = system: HOP-92 NSCLC
CCRF-CEM leukemia = system: CCRF-CEM leukemia
NCI-H226 lung = system: NCI-H226 lung
UACC-62 melanoma = system: UACC-62 melanoma
MALME-3M melanoma = system: MALME-3M melanoma
UACC-257 melanoma = system: UACC-257 melanoma
HCT-116 colon = system: HCT-116 colon
EKVX NSCLC = system: EKVX NSCLC
SF-295 CNS = system: SF-295 CNS
MDA-N = system: MDA-N
A498 renal = system: A498 renal
MOLT-4 leukemia = system: MOLT-4 leukemia
OVCAR-5 ovarian = system: OVCAR-5 ovarian
RPMI-8226 leukemia = system: RPMI-8226 leukemia
RXF 393 renal = system: RXF 393 renal
LOX IMVI melanoma = system: LOX IMVI melanoma
U251 CNS = system: U251 CNS
K-562 leukemia = system: K-562 leukemia
HS 578T breast = system: HS 578T breast
A549 NSCLC = system: A549 NSCLC
COLO 205 colon = system: COLO 205 colon
DU-145 prostate = system: DU-145 prostate
OVCAR-4 ovarian = system: OVCAR-4 ovarian
KM12 colon = system: KM12 colon
M14 melanoma = system: M14 melanoma
HCT-15 colon = system: HCT-15 colon
SK-MEL-28 melanoma = system: SK-MEL-28 melanoma
HOP-62 NSCLC = system: HOP-62 NSCLC
HT29 colon = system: HT29 colon
SF-539 CNS = system: SF-539 CNS
NCI-H522 lung = system: NCI-H522 lung
SK-MEL-5 melanoma = system: SK-MEL-5 melanoma
NCI-H23 lung = system: NCI-H23 lung
PC-3 prostate = system: PC-3 prostate
HL-60(TB) leukemia = system: HL-60(TB) leukemia
MDA-MB-435 = system: MDA-MB-435
SK-MEL-2 melanoma = system: SK-MEL-2 melanoma
T-47D breast = system: T-47D breast
SN12C renal = system: SN12C renal
UO-31 renal = system: UO-31 renal
NCI-H460 lung = system: NCI-H460 lung
TK-10 renal = system: TK-10 renal
SR leukemia = system: SR leukemia

Measured: TGI

CCOC(=O)c1cc2c([N+](=O)[O-])c(N)ccc2s1
not listed: SR leukemia
> 100 µM: all other assays above

CC(C)(C)n1c(=O)[nH]c(=O)n1C(C)(C)C
not listed: SF-268 CNS | RPMI-8226 leukemia | DU-145 prostate | NCI-H522 lung | MDA-MB-435 | T-47D breast
> 100 µM: all other assays above

Cc1ccc(S(=O)(=O)Nc2nnc(S(N)(=O)=O)s2)cc1
not listed: IGROV1 ovarian | SNB-75 CNS | CCRF-CEM leukemia | HT29 colon | SF-539 CNS | PC-3 prostate | HL-60(TB) leukemia
> 100 µM: all other assays above

CC(C)(C)[Si](C)(C)OCc1cccc(OCCOc2cccc(CO[Si](C)(C)C(C)(C)C)c2[N+](=O)[O-])c1[N+](=O)[O-]
not listed: HCC-2998 colon | MDA-MB-231 breast | RPMI-8226 leukemia | K-562 leukemia
> 100 µM: all other assays above
